Data published in the NIST ThermoML archive (doi:10.1021/je049814b).

Settings: Liquid, Coaxial cylinder method

O [water]
thermal conductivity [W/m/K]
Settings | 290.6 K | 329.7 K | 367.1 K | 395.1 K | 440.7 K | 484.2 K | 514.2 K | 549.8 K | 575.4 K
1000 kPa | 0.592 | 0.649 | 0.679 | 0.683 | – | – | – | – | –
10000 kPa | 0.602 | 0.655 | 0.684 | 0.692 | 0.683 | 0.66 | 0.638 | 0.587 | 0.54
40000 kPa | 0.613 | 0.665 | 0.697 | 0.709 | 0.703 | 0.684 | 0.662 | 0.628 | 0.594
